# Measurements reported in EP4029501A1, “COMBINATION OF POLYAROMATIC UREA DERIVATIVES AND GLUCOCORTICOID OR HDAC INHIBITOR FOR THE TREATMENT OF DISEASES OR CONDITIONS ASSOCIATED WITH MUSCLE CELLS AND/OR SATELLITE CELLS” (Anagenesis Biotechnologies, priority 2021, dated 2022).
# Where two headings read alike, the source gives them in different places.
# What was measured:
# Format in all cases: cell-based, human
# [1] = system: muscle progenitors derived from DMD hiPSC; assay: Dose response assay of combination treatments with Givinostat or Prednisolone: total myotube area; conditions: for improvement of potency: versus alone; for potency: change in words
# Description: (§1) • Figure 1 - the workflow of the myotube assay, aiming at monitoring myogenic activity of compounds and effect on satellite-like cells. • Figure 2 - the myogenic activity of compound (i) in a dose-response assay, as shown by an increase of the total myotube surface/well upon increase of compound concentration. • Figure 3 - the positive effect on satellite-like cells of compound (i) in a dose-response assay, as shown by the increase of Pax7-positive cell percentage upon increase of compound concentration. • Figure 4 - representative images for the dose-response of the total myotube area readout for compound (i), corresponding to Figure 2. • Figure 5 - representative images for the dose-response of the percentage of Pax7-positive cell readout for compound (i), corresponding to Figure 3. • Figure 6 - Dose-response curve on muscle progenitors derived from DMD hiPSC. Treatment of muscle progenitors derived from DMD hiPSC with Prednisolone or Givinostat alone inducing a beneficial effect on α-actinin expression (representative of the myotube surface) and a loss of nearly 50 % of Pax7 positive cells (representative of the population of satellite cells) in a dose-dependent manner. The highest concentration represented is 10 µM. The arrows show the point a 0.3 µM. Efficacy values correspond to the highest score of normalized myotube surface (y-axis). Activity values correspond to the half maximal effective concentration (EC50; x-axis). The curve fits were calculated using a 4-parameter logistic regression model (Graphpad PRISM software). Error bars show standard deviation (SD). The picture on the right panel is representative of the highest myotube surface value of the dose-response curve. • Figures 7-9 - Dose-response curve on muscle progenitors derived from DMD hiPSC. Treatment in a dose-dependent manner of muscle progenitors derived from DMD hiPSC with indicated compound alone or with combination with Prednisolone or Givinostat at 0.3 µM. The combination induced an improvement of myogenic capabilities seen with α-actinin expression (representative of the myotube surface) and harbor no worsening of the Pax7 positive cells (representative of the population of satellite cells) compared to Prednisolone or Givinostat alone. The highest concentration of DRC is 10 µM.
# Efficacy values correspond to the highest score of normalized myotube surface (y-axis). Activity values correspond to the half maximal effective concentration (EC50; x-axis). The curve fits were calculated using a 4-parameter logistic regression model (Graphpad PRISM software). Error bars show standard deviation (SD). The picture on the right panel is representative of the highest myotube surface value of the dose-response curve.
# (§2) Figure 1 provides an example of a Myotube assay workflow. At day 0, hMP are thawed and 3.1 million cells are plated into a T75-flask coated with hESC-qualified Matrigel™ (Corning) in SkGM proliferating medium (PromoCells), supplemented with 5 µM Y-27632 (Tocris Bioscience). On day 2, SkGM proliferating medium is refreshed. On day 4, hMP are harvested and transferred into a 384-well plate coated with collagen type I at a density of 3500 cells/well in a DMEM-based medium, containing 5% of knockout serum replacement (Gibco), 1% PenStrep (Gibco), 1% MEM NEAA (Gibco) and 0.1 mM 2-mercaptoethanol (Gibco) (hereafter "K5 medium") and 5 µM Y-27632. Compounds to be tested are then added in the medium and incubated for 3 days at 37°C. On day 7, cells are fixed and immunostained. For example, myotubes (alpha-actinin staining) and satellite-like (Pax7 staining) cells can be analyzed for total myotube area per well or Pax7-positive cell quantification.
# DMD hMPs were put in the Myotube assay according to the workflow described in example 2.1. […]
# Pax7 positive cells = assay: Dose response assay of combination treatments with Givinostat or Prednisolone: percentage of Pax7-positive cells
# Description: as §1, §2
# DMD hMPs were put in the Myotube assay according to the workflow described in example 2.1. In particular, Prednisolone (Sigma) or Givinostat (Exclusive Chemistry) were added in all conditions at a fixed concentration equal to 0.3 µM in combination with compounds az or bw or q tested in DRC at 8 concentrations ranging from 4.5 nM to 10 µM, starting from day 4. Also, as control, DRCs with the same range of concentrations were done with Prednisolone alone, Givinostat (figure 6) alone or compounds az or bw or q alone (figures 7 to 9). […]
# [2] = system: muscle progenitors derived from DMD hiPSC; assay: Myotube assay: total myotube area per well (alpha-actinin staining); conditions: for Emax / EC50: Homo sapiens, Myotube
# In short: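 DMD hiPSC-derived muscle progenitors (NCRM-1 background) plated at 3500 cells/well in K5 medium with 5 µM Y-27632, then exposed to compound at 1.5 nM–30 µM for 3 days at 37°C. Cells fixed on day 7, alpha-actinin-immunostained and total myotube area per well quantified; duplicates averaged, EC50 and normalized myotube area derived.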
# Pax7-positive cells = assay: Myotube assay: Pax7-positive (satellite-like) cell quantification; set-up: key to Pax7: (-) : Depletes the pool of cells, while positively affects the myotubes; (+) : Maintains or increases the pool of cells, with at least 1 of the highest concentration known to be cytotoxic; (++) Maintains or increases the pool of cells, without any toxicity; conditions: for Pax7: comparative compounds, effect on pool of Pax7-positive cells
# Description: The efficacy of said compound for use in treating, ameliorating, delaying, curing and/or preventing a disease or condition associated with muscle cells and/or satellite cells is positively correlated with the generation of myotubes (i.e. the increase of the area occupied by myotubes on the assay) and/or satellite cells (i.e. the increase of the number of satellite cells) in the assay after adding said compound. The generation of myotubes by the addition of said compound is expressed as the EC50 value, the concentration of said compound that corresponds with the half-maximal generation of myotubes, and the MA (normalized myotube area) value, the normalized area occupied by generated myotubes on the assay. […] Since muscle cells are formed from myotubes during myogenesis, the generation of myotubes in the assay is a good indicator of the ability of said compound to induce the formation of functional muscle cells in vivo. The number of satellite cells is measured as the percentage of Pax7 positive cells, relative to the total number of cells in the assay, as shown in Figure 3. The percentage of Pax7 is a good indicator of the ability of said compound to induce the formation of satellite cells which are able to play a role in muscle repair and regeneration in vivo.
# DMD human induced pluripotent stem cells (hereafter "DMD hiPSC"), generated from the NCRM-1 hiPSC WT cell line by gene editing, or WT human induced pluripotent stem cells (hereafter "WT hiPSC"), being NCRM-1 hiPSC wt cell line, have been differentiated according to Chal et al. 2015, 2016, to produce muscle progenitors (hereafter "hMP"). The hMP population contains satellite-like cells (i.e Pax7-positive cells) and satellite cells' progenies (i.e. Myogenin-positive cells).
# as §2
# DMD hMP were put in the Myotube assay according to the workflow described in Example 2.1. In particular, compound (i) was added at concentrations ranging from 1.5 nM to 30 µM, starting from day 4. hMP were cultivated for three more days in presence of compound (i), then fixed and analyzed for percentage of Pax7-positive cells and nuclei number. Duplicates of each condition were averaged.
# (-) : Depletes the pool of cells, while positively affects the myotubes; (+) : Maintains or increases the pool of cells, with at least 1 of the highest concentration known to be cytotoxic; and (++) Maintains or increases the pool of cells, without any toxicity.
# [3] = DRC 4.5 nM to 10 µM in combination with Givinostat at 0.3 µM
# [4] = DRC 4.5 nM to 10 µM in combination with Prednisolone at 0.3 µM
# [5] = in combination with Givinostat at 0.3 µM
# [6] = in combination with Prednisolone at 0.3 µM
# [7] = 72 h, efficacy, MA = normalized Myotube Area, 3 days incubation, DMD or WT cell source not given
# [8] = 72 h, myogenic activity, half-maximal generation of myotubes, 10 points dose-response 1.5 nM to 30 µM, 3 days, DMD or WT cell source not given
# [9] = 72 h, comparative compounds, same assay as Table 3, NA: non active, read-out: MA
# [10] = comparative compounds, same assay as Table 3, NA: non active
SMILES,"total myotube surface [1, 3]","total myotube surface [1, 4]",satellite cell population (Pax7 positive cells; [5]),"Emax [2, 7]","EC50 [2, 8]","EC50 [2, 10]",Pax7 (Pax7-positive cells),further results
"Cc1ccc(-n2nc(C(C)(C)C)cc2NC(=O)Nc2ccc(Oc3ccnc4[nH]c(=O)cnc34)cc2C(F)(F)F)cc1 [(az), 1-(3-(tert-butyl)-1-(p-tolyl)-1H-pyrazol-5-yl)-3-(4-((3-oxo-3,4-dihydropyrido[2,3-b]pyrazin-8-yl)oxy)-2-(trifluoromethyl)phenyl)urea]",increased the total myotube surface,increased the total myotube surface,at least maintained,≥ 75%,500 to 1000 nM,–,–,"improvement of potency [1, 5]: two fold; improvement of potency [1, 6]: two fold; satellite cell population increase (Pax7 positive cells; [6]): 1.5 fold"
"CSc1cc(Oc2ccnc3[nH]c(=O)cnc23)ccc1NC(=O)Nc1cc(C(C)(C)C)nn1-c1cccc(F)c1 [(bw), 1-(3-(tert-butyl)-1-(3-fluorophenyl)-1H-pyrazol-5-yl)-3-(2-(methylthio)-4-((3-oxo-3,4-dihydropyrido[2,3-b]pyrazin-8-yl)oxy)phenyl)urea]",increased the total myotube surface,increased the total myotube surface,the decrease of satellite cell pool which is only seen at high concentration of treatment with compound bw alone is slightly diminished,≥ 75%,< 500 nM,–,–,"potency [1, 5]: improved; potency [1, 6]: slightly decreased; satellite cell pool (Pax7 positive cells; compound alone, DRC 4.5 nM to 10 µM): decrease of satellite cell pool which is only seen at high concentration; satellite cell population (Pax7 positive cells; [6]): the decrease of satellite cell pool which is only seen at high concentration of treatment with compound bw alone is slightly diminished"
"CC(C)n1nc(C(C)(C)C)cc1NC(=O)Nc1ccc(Oc2ccnc3[nH]c(=O)cnc23)cc1F [(i), 1-(3-(tert-butyl)-1-isopropyl-1H-pyrazol-5-yl)-3-(2-fluoro-4-((3-oxo-3,4-dihydropyrido[2,3-b]pyrazin-8-yl)oxy)phenyl)urea]",–,–,–,50 to 75%,1000 to 5000 nM,–,–,"myotube surface ([2]; DMD hMP, 10 increasing concentrations 1.5 nM to 30 µM, 3 days (figure 2)): dose-dependent increase of myotube surface; percentage of Pax7-positive cells (Pax7-positive cells; DMD hMP, 10 increasing concentrations 1.5 nM to 30 µM, 3 days (figure 3)): dose-dependent increase percentage of Pax7-positive cells"
"CC(C)(C)c1cc(NC(=O)Nc2ccc(Oc3ccnc4[nH]c(=O)cnc34)cc2F)sn1 [(q), 1-(3-(tert-butyl)isothiazol-5-yl)-3-(2-fluoro-4-((3-oxo-3,4-dihydropyrido[2,3-b]pyrazin-8-yl)oxy)phenyl)urea]",strongly increased,strongly increased,maintenance of the satellite cells in all conditions,50 to 75%,1000 to 5000 nM,–,–,"improvement of potency [1, 5]: 1.4 fold; improvement of potency [1, 6]: 5 fold; satellite cell population (Pax7 positive cells; [6]): maintenance of the satellite cells in all conditions"
Cc1ccc(-n2nc(C(C)(C)C)cc2NC(=O)Nc2ccc(OCCN3CCOCC3)c3ccccc23)cc1 [BIRB-796],–,–,–,–,–,≥ 5000 nM,++,"Emax [2, 9]: ≥ 75%"
"CC(C)(C)c1cc(NC(=O)Nc2ccc(Oc3ccnc4[nH]c(=O)cnc34)cc2F)n(-c2ccccc2)n1 [CCT196969, reference compound]",–,–,–,–,–,500 to 1000 nM,+,"MA [2, 10]: ++ (++: 50% ≤ MA <75%)"
"CNC(=O)c1cc(Oc2ccc(NC(=O)Nc3cc(C(C)(C)C)nn3-c3ccc4ncccc4c3)c(F)c2)ccn1 [Rebastinib, reference compound]",–,–,–,–,–,1000 to 5000 nM,+,–
CNC(=O)c1cc(Oc2ccc(NC(=O)Nc3ccc(Cl)c(C(F)(F)F)c3)cc2)ccn1 [Sorafenib],–,–,–,–,–,≥ 5000 nM,++,"Emax [2, 9]: 25 to 50%"
